This note sets out measurements from patent US8598365B2, “Herbicides” (Syngenta Limited, priority 2007, dated 2013).

Each structure is given as a SMILES string.

What all share (format): in vivo
The test system of test [1] is Setaria faberi (SETFA). In words: Example B pre-emergence herbicidal activity. As to conditions: 312 h, rate 250 g/ha, evaluated after 13 days, read-out: Pre-Emergence Activity SETFA (100=total damage to plant; 0=no damage to plant). The method in brief:
(§1)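 Plants were sprayed 1 day after sowing (pre-emergence) or after 8 days (post-emergence) with active ingredient in acetone/water 50:50 plus 0.5% Tween 20. They were grown in a glasshouse at 24/16 °C, 14 h light and 65% humidity. Damage was scored visually 0–100 after 13 days.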

Test [2] has as its system Avena fatua (AVEFA). The test can be described thus: Example B pre-emergence herbicidal activity. The settings on record: 312 h, rate 250 g/ha, evaluated after 13 days, read-out: Pre-Emergence Activity AVEFA (100=total damage to plant; 0=no damage to plant). An outline of the steps:
as §1

For test [3], the system named is Amaranthus retoflexus (AMARE). The test can be described thus: Example B pre-emergence herbicidal activity. The settings on record: Amaranthus retroflexus, 312 h, rate 250 g/ha, evaluated after 13 days, read-out: Pre-Emergence Activity AMARE (100=total damage to plant; 0=no damage to plant). An outline of the steps:
as §1

Test [4] relates to Alopecurus myosuroides (ALOMY). In words: Example B pre-emergence herbicidal activity. The settings on record: 312 h, rate 250 g/ha, evaluated after 13 days, read-out: Pre-Emergence Activity ALOMY (100=total damage to plant; 0=no damage to plant). The method in brief:
as §1

For test [5], the system named is Echinochloa crus-galli (ECHCG). In words: Example B pre-emergence herbicidal activity. As to conditions: 312 h, rate 250 g/ha, evaluated after 13 days, read-out: Pre-Emergence Activity ECHCG (100=total damage to plant; 0=no damage to plant). An outline of the steps: as §1
Test [6] concerns Setaria faberi (SETFA). The test can be described thus: Example B post-emergence herbicidal activity. The settings on record: 312 h, rate 250 g/ha, evaluated after 13 days, read-out: Post-emergence activity SETFA (100=total damage to plant; 0=no damage to plant). An outline of the steps:
as §1

For test [7], the system named is Avena fatua (AVEFA). The test can be described thus: Example B post-emergence herbicidal activity. As to conditions: 312 h, rate 250 g/ha, evaluated after 13 days, read-out: Post-emergence activity AVEFA (100=total damage to plant; 0=no damage to plant). An outline of the steps:
as §1

Test [8] has as its system Amaranthus retoflexus (AMARE). In words: Example B post-emergence herbicidal activity. The settings on record: Amaranthus retroflexus, 312 h, rate 250 g/ha, evaluated after 13 days, read-out: Post-emergence activity AMARE (100=total damage to plant; 0=no damage to plant). The method in brief: as §1
For test [9], the system named is Alopecurus myosuroides (ALOMY). In words: Example B post-emergence herbicidal activity. As to conditions: 312 h, rate 250 g/ha, evaluated after 13 days, read-out: Post-emergence activity ALOMY (100=total damage to plant; 0=no damage to plant). The method in brief: as §1
For test [10], the system named is Echinochloa crus-galli (ECHCG). The test can be described thus: Example B post-emergence herbicidal activity. As to conditions: 312 h, rate 250 g/ha, evaluated after 13 days, read-out: Post-emergence activity ECHCG (100=total damage to plant; 0=no damage to plant). An outline of the steps:
as §1

Take `CCc1sc(-c2cc(F)c(OC)cc2F)nc1C1C(=O)[C@@H]2CC[C@@H](C2)C1=O` (stereo partly shown) [Compound T102]: the pest or weed control at 250 g/ha in the test on Setaria faberi (SETFA) [1] turned out to be 50%; in the test on Avena fatua (AVEFA) [2], 30%; in test [3] it was 0%; in test [4], 50%; in test [5] it was 70%; in the test with Setaria faberi (SETFA) [6], 100%. The pest or weed control at 250 g/ha amounted to 100% in the test with Avena fatua (AVEFA) [7], 0% in [8], 100% in [9] and 100% in test [10].

`Cc1sc(-c2ccc(OC(F)F)cc2F)nc1C1C(=O)[C@@H]2CC[C@@H](C2)C1=O` (stereo partly shown) [Compound T92]: the pest or weed control at 250 g/ha in the test with Setaria faberi (SETFA) [1] was 100%; in the test on Avena fatua (AVEFA) [2], 90%; in [3], 0%; in test [4] it was 70%; in [5] it was 100%; with Setaria faberi (SETFA) [6], 100%. For the same molecule, the pest or weed control at 250 g/ha in the test with Avena fatua (AVEFA) [7] worked out at 100%; in test [8], 10%; in test [9], 100%; in [10], 100%.

Consider `Cc1sc(-c2ccc(Cl)c(Cl)c2)nc1C1=C(OC(=O)C(C)(C)C)[C@H]2CC[C@H](C2)C1=O` [Compound P3], for which the pest or weed control at 250 g/ha is 100% with Setaria faberi (SETFA) [1]; 0% in the test on Avena fatua (AVEFA) [2]; 0% in test [3]; 20% in test [4]; 80% in test [5]; 100% in the test on Setaria faberi (SETFA) [6]. For the same molecule, the pest or weed control at 250 g/ha in the test with Avena fatua (AVEFA) [7] came out at 0%; in test [8], 0%; in [9], 60%; in test [10], 80%.

As to `Cc1sc(-c2ccc(Cl)c(C(F)(F)F)c2)nc1C1=C(OC(=O)C(C)(C)C)[C@H]2CC[C@H](C2)C1=O` [Compound P4], the pest or weed control at 250 g/ha was 90% in the test on Setaria faberi (SETFA) [1]; 0% in the test with Avena fatua (AVEFA) [2]; 40% in test [3]; 0% in test [4]; 0% in test [5]; 80% in the test on Setaria faberi (SETFA) [6]. Moreover, the pest or weed control at 250 g/ha was 0% in the test on Avena fatua (AVEFA) [7], 0% in [8], 20% in test [9] and 80% in [10].

`CCc1sc(-c2ccc(Cl)c(C)c2)nc1C1C(=O)[C@@H]2CC[C@@H](C2)C1=O` (stereo partly shown) [Compound T20]: the pest or weed control at 250 g/ha with Setaria faberi (SETFA) [1] was 40%; with Avena fatua (AVEFA) [2] it was 0%; in test [3], 0%; in test [4], 50%; in test [5], 70%; with Setaria faberi (SETFA) [6], 90%. Besides, the pest or weed control at 250 g/ha with Avena fatua (AVEFA) [7] is 90%; in [8] it was 0%; in test [9] it was 90%; in [10], 100%.

Turning to `Cc1cc(Br)ccc1-c1nc(C2C(=O)[C@@H]3CC[C@@H](C3)C2=O)c(C)s1` (stereo partly shown) [Compound T37], the pest or weed control at 250 g/ha in the test on Setaria faberi (SETFA) [1] came to 90%; with Avena fatua (AVEFA) [2] it was 30%; in [3], 0%; in test [4] it was 30%; in test [5] it was 60%; in the test on Setaria faberi (SETFA) [6] it was 100%. The pest or weed control at 250 g/ha amounted to 90% in the test with Avena fatua (AVEFA) [7], 0% in test [8], 100% in test [9] and 100% in test [10].

`COc1ccc(-c2nc(C3C(=O)[C@@H]4CC[C@@H](C4)C3=O)c(C)s2)cc1F` (stereo partly shown) [Compound T76]: the pest or weed control at 250 g/ha with Setaria faberi (SETFA) [1] was 70%; with Avena fatua (AVEFA) [2], 0%; in test [3] it was 0%; in test [4], 0%; in test [5], 50%; in the test with Setaria faberi (SETFA) [6], 80%. In addition, the pest or weed control at 250 g/ha turned out to be 50% in the test with Avena fatua (AVEFA) [7], 0% in test [8], 70% in test [9] and 90% in test [10].

For the molecule `Cc1sc(-c2ccc(C(F)(F)F)cc2)nc1C1C(=O)[C@@H]2CC[C@@H](C2)C1=O` (stereo partly shown) [Compound T59], the pest or weed control at 250 g/ha in the test with Setaria faberi (SETFA) [1] was found to be 100%; with Avena fatua (AVEFA) [2], 70%; in [3], 0%; in test [4], 80%; in test [5], 90%; in the test with Setaria faberi (SETFA) [6] it was 100%. For the same molecule, the pest or weed control at 250 g/ha in the test on Avena fatua (AVEFA) [7] was determined as 80%; in test [8] it was 0%; in [9], 100%; in [10], 100%.

`O=C1C(c2nc(-c3ccc(Br)cc3)sc2CC(F)(F)F)C(=O)[C@H]2CC[C@@H]1C2` (stereo partly shown) [Compound T40]: the pest or weed control at 250 g/ha amounted to 100% in the test with Setaria faberi (SETFA) [1]; 100% in the test on Avena fatua (AVEFA) [2]; 0% in test [3]; 100% in test [4]; 100% in test [5]; 100% in the test with Setaria faberi (SETFA) [6]. Besides, the pest or weed control at 250 g/ha with Avena fatua (AVEFA) [7] worked out at 100%; in test [8] it was 0%; in test [9], 100%; in test [10] it was 100%.

With `CCc1sc(-c2ccc(Cl)c(F)c2)nc1C1C(=O)[C@@H]2CC[C@@H](C2)C1=O` (stereo partly shown) [Compound T27], the pest or weed control at 250 g/ha in the test on Setaria faberi (SETFA) [1] amounted to 100%; in the test on Avena fatua (AVEFA) [2], 90%; in test [3] it was 0%; in test [4], 90%; in [5], 100%; in the test with Setaria faberi (SETFA) [6] it was 100%. Also, the pest or weed control at 250 g/ha was 100% in the test on Avena fatua (AVEFA) [7], 0% in [8], 100% in [9] and 100% in test [10].

Turning to `CCc1sc(-c2ccc(F)cc2F)nc1C1C(=O)[C@@H]2CC[C@@H](C2)C1=O` (stereo partly shown) [Compound T104], the pest or weed control at 250 g/ha in the test on Setaria faberi (SETFA) [1] was 50%; with Avena fatua (AVEFA) [2], 20%; in test [3], 0%; in [4], 70%; in [5] it was 100%; with Setaria faberi (SETFA) [6] it was 100%. For the same molecule, the pest or weed control at 250 g/ha in the test with Avena fatua (AVEFA) [7] is 90%; in [8], 0%; in test [9], 100%; in test [10], 100%.

On to `CCc1sc(-c2ccc(Cl)c(Cl)c2)nc1C1C(=O)[C@@H]2CC[C@@H](C2)C1=O` (stereo partly shown) [Compound T22], for which the pest or weed control at 250 g/ha was 100% in the test on Setaria faberi (SETFA) [1]; 20% in the test with Avena fatua (AVEFA) [2]; 20% in test [3]; 70% in [4]; 80% in test [5]; 90% with Setaria faberi (SETFA) [6]. For the same molecule, the pest or weed control at 250 g/ha came to 90% in the test with Avena fatua (AVEFA) [7], 0% in [8], 90% in test [9] and 90% in test [10].

Turning to `CCc1sc(-c2ccc(OC)c(F)c2)nc1C1C(=O)[C@@H]2CC[C@@H](C2)C1=O` (stereo partly shown) [Compound T111], the pest or weed control at 250 g/ha with Setaria faberi (SETFA) [1] was determined as 80%; in the test on Avena fatua (AVEFA) [2] it was 90%; in [3], 0%; in test [4] it was 50%; in test [5], 100%; in the test with Setaria faberi (SETFA) [6], 100%. The pest or weed control at 250 g/ha stood at 100% in the test with Avena fatua (AVEFA) [7], 0% in test [8], 100% in test [9] and 100% in test [10].
